Data taken from patent US10800741B2 (ANCUREALL PHARMACEUTICAL (SHANGHAI) CO., LTD., priority 2017, dated 2020).
Numbering of substitutions follows the chain as printed.

How the values were obtained:
Test in all cases: KINOMEscan in vitro binding to 468 labeled protein kinases
[1] = biological target: T1, protein kinases (Homo sapiens, UniProt P00533, DEL746-750); settings: EGFR(E746-A750de1)
T1 construct: purchased Discovery X company (USA), KINOMEscan screening platform
Summary of the method: (§1)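 Competition binding across 468 labelled kinases on the KINOMEscan platform, compound tested at 1000 nM, 10 nM and 1 nM, duplicate samples. Result given as percentage of DMSO solvent control; lower percentage means stronger binding.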

[2] = biological target: T2, protein kinases (Homo sapiens, UniProt P00533, L861Q); settings: EGFR(L861Q)
T2 construct: purchased Discovery X company (USA), KINOMEscan screening platform
Summary of the method: as §1

[3] = biological target: T3, protein kinases (Homo sapiens, UniProt P10721); settings: KIT, read-out: Test compound/solvent control (%)
T3 construct: purchased Discovery X company (USA), KINOMEscan screening platform
Summary of the method: as §1

[4] = biological target: T4, protein kinases (Homo sapiens, UniProt P36888); settings: FLT3, read-out: Test compound/solvent control (%)
T4 construct: purchased Discovery X company (USA), KINOMEscan screening platform
T4 sequence (P36888 27-993): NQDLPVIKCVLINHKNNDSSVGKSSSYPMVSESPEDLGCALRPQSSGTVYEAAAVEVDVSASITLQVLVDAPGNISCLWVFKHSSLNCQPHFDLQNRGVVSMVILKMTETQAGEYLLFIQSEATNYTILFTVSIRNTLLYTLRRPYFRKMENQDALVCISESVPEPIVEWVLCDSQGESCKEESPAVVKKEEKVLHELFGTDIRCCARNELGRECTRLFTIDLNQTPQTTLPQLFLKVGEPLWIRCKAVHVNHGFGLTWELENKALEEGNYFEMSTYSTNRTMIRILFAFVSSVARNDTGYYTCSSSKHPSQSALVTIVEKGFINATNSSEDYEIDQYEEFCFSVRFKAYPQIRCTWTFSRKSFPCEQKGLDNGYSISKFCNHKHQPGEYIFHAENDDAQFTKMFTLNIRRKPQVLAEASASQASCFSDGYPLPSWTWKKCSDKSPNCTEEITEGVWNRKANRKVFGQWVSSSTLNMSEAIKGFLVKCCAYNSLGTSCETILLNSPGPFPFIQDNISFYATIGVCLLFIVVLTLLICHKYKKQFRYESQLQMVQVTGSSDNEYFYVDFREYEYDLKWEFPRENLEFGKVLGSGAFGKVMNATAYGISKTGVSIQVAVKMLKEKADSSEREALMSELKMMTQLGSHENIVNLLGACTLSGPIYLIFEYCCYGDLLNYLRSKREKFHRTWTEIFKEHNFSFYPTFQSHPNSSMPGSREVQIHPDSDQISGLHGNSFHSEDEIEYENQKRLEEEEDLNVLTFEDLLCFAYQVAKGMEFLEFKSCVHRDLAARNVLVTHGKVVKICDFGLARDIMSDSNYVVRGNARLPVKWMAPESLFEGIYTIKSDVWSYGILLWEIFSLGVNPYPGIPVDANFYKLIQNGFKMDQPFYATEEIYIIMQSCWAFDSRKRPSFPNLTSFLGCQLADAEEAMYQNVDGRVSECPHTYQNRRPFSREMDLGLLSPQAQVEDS
Summary of the method: as §1

[5] = biological target: T5, protein kinases (Homo sapiens, UniProt P36888, D835H); settings: FLT3(D835H), read-out: Test compound/solvent control (%)
T5 construct: purchased Discovery X company (USA), KINOMEscan screening platform
T5 sequence (P36888 27-993 D835H): T4 sequence (P36888 27-993) with D809H
Summary of the method: as §1

T3 sequence (P10721 26-976): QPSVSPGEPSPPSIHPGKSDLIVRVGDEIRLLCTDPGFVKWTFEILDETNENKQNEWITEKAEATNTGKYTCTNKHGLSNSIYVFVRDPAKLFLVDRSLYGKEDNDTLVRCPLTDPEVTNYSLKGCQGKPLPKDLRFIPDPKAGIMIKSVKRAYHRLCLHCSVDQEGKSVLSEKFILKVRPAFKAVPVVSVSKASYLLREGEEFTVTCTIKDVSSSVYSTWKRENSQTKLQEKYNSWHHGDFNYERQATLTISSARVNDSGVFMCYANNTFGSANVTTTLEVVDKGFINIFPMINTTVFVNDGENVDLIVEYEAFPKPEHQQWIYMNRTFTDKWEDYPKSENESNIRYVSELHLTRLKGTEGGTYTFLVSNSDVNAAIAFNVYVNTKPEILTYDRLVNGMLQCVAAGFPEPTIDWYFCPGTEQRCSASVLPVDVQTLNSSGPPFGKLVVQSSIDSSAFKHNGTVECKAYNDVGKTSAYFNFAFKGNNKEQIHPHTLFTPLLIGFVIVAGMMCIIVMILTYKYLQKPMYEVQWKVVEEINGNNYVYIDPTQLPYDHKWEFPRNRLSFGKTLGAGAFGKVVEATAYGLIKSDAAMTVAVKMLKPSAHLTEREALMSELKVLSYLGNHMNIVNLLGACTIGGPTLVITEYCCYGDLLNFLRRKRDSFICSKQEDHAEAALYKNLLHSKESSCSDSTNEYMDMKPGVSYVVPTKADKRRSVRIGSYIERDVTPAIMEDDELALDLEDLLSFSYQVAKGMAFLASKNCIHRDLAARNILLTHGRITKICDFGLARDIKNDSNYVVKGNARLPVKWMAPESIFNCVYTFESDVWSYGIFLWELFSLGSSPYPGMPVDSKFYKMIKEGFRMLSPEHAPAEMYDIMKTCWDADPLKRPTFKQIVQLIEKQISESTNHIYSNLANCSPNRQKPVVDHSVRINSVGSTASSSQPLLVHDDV
T1 sequence (P00533 with tags, fused parts or gaps DEL746-750): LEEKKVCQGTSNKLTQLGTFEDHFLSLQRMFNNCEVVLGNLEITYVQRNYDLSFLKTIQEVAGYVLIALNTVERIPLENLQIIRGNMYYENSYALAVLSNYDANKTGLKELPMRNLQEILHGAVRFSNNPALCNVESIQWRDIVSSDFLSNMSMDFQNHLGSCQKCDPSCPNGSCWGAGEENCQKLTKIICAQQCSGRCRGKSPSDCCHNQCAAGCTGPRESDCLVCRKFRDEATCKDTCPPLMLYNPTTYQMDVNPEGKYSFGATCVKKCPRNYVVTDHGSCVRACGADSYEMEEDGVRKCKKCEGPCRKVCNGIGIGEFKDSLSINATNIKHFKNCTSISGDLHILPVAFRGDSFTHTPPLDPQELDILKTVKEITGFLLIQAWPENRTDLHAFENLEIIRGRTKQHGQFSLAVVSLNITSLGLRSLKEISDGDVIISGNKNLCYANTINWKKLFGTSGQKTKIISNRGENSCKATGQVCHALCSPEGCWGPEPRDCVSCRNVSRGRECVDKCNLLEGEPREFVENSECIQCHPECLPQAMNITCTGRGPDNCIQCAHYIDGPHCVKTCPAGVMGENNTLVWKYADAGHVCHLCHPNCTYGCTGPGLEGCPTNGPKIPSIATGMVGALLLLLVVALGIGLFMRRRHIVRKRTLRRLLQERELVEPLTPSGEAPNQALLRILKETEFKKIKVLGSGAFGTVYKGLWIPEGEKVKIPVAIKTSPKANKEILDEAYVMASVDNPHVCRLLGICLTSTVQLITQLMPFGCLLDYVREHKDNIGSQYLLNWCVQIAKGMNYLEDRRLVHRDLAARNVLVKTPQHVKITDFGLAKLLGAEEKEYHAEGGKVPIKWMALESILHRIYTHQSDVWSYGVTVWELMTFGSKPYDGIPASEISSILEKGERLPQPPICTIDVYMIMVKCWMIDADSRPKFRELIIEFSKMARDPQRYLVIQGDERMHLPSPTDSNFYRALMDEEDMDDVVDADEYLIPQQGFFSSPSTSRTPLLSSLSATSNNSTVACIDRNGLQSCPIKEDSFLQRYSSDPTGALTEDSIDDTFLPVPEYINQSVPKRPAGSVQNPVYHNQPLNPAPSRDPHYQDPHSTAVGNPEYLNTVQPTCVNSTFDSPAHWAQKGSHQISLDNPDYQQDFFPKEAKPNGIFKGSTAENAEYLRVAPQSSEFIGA
T2 sequence (P00533 25-1210 L861Q): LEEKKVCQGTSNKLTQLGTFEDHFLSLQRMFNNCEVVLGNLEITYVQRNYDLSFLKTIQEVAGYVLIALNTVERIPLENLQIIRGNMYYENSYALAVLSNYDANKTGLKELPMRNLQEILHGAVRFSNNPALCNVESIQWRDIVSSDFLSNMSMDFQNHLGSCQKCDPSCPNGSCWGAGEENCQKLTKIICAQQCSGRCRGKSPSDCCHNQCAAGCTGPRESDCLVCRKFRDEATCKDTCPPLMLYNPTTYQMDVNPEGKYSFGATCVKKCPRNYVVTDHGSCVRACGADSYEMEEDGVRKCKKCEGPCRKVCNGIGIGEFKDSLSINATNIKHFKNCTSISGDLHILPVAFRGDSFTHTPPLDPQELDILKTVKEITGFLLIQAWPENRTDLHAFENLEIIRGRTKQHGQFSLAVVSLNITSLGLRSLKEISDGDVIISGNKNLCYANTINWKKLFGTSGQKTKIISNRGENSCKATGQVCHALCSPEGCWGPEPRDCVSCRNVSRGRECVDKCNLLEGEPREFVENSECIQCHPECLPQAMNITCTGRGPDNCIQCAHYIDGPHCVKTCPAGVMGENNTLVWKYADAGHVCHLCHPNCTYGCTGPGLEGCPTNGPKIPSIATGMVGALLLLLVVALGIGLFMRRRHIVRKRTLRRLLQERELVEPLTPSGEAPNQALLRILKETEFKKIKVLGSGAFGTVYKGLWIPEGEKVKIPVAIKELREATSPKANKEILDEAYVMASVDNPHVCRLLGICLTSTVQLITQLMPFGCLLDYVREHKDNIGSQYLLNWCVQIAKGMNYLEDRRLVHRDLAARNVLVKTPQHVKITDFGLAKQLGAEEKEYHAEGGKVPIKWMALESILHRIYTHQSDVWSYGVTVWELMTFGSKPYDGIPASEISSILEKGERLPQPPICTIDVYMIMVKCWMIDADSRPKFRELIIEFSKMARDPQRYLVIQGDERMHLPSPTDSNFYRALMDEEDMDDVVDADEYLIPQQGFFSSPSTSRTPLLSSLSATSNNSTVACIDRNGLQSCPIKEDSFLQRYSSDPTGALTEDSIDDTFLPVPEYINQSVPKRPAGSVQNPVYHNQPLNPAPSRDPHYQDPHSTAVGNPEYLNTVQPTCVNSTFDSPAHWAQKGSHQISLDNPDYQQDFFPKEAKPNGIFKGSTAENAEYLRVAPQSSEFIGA

Structure (SMILES): COCCOc1cc2nccc(Oc3ccc(NC(=O)Nc4cc(C(C)(C)C)n[nH]4)c(Cl)c3)c2cc1NC(C)=O [Compound 66, N-[4-{4-[3-(5-tert-butyl-2H-pyrazol-3-yl)-ureido]-3-chloro-phenoxy}-7-(2-methoxy-ethoxy)-quinolin-6-yl]-acetamide]
- Test compound/solvent control (%) ([1]; 1 nM): 60%
- Test compound/solvent control (%) ([1]; 10 nM): 18%
- Test compound/solvent control (%) ([1]; 1000 nM): 2.8%
- Test compound/solvent control (%) ([2]; 1 nM): 73%
- Test compound/solvent control (%) ([2]; 10 nM): 9.5%
- Test compound/solvent control (%) ([2]; 1000 nM): 0%
- remaining binding at 0.001 µM ([3]; 1 nM): 90%
- remaining binding at 0.01 µM ([3]; 10 nM): 27%
- remaining binding at 1 µM ([3]; 1000 nM): 0%
- remaining binding at 0.001 µM ([4]; 1 nM): 92%
- remaining binding at 0.01 µM ([4]; 10 nM): 20%
- remaining binding at 1 µM ([4]; 1000 nM): 1.9%
- remaining binding at 0.001 µM ([5]; 1 nM): 79%
- remaining binding at 0.01 µM ([5]; 10 nM): 15%
- remaining binding at 1 µM ([5]; 1000 nM): 1.1%
